As usually defined, the melting point is the temperature of the solid-liquid transition.

We go through 24 compounds from patent US7501425B1, “Bicyclic pyrimidines and bicyclic 3,4-dihydropyprimidines as inhibitors of cellular proliferation” (Warner Lambert Company, priority 1999, dated 2009).

The structures appear in SMILES notation. Structures can show the parent of a compound that is named as a salt.

Turning to `CCN(CC)CCOc1ccc(Nc2ncc3c(n2)N(CC)C(=O)N(c2cc(OC)cc(OC)c2)C3)cc1` (as salt: salt) (hydrate or solvate) [Example 53a, 7-[4-(2-Diethylamino-ethoxy)-phenylamino]-3-(3,5-dimethoxy-phenyl)-1-ethyl-3,4-dihydro-pyrimido[4,5-d]pyrimidin-2(1H)-one], the melting point was in the range of 139 to 141 °C.

The compound `CCN1C(=O)N(c2cc(OC)cc(OC)c2)Cc2cnc(SC)nc21` (hydrate or solvate) [Example 50a, 3-(3,5-Dimethoxy-phenyl)-1-ethyl-7-methylsulfanyl-3,4-dihydro-pyrimido[4,5-d]pyrimidin-2(1H)-one] yielded a melting point of 134 to 136 °C.

Consider `CCN(CC)CCCCNc1ncc2c(n1)N(CC)C(=O)N(c1cc(OC)cc(OC)c1)C2` (hydrate or solvate) [Example 53, 7-(4-Diethylamino-butylamino)-3-(3,5-dimethoxy-phenyl)-1-ethyl-3,4-dihydro-pyrimido[4,5-d]pyrimidin-2(1H)-one], for which the melting point was in the range of 83 to 85 °C.

In the case of `C[S+]([O-])c1ncc2c(n1)N(C1CCCC1)C(=O)NC2` (stereo not drawn) [Example 5, 1-Cyclopentyl-7-methanesulfinyl-3,4-dihydro-pyrimido[4,5-d]pyrimidin-2(1H)-one], the melting point is 235 to 236 °C (dec.).

`CC(C)N1C(=O)NCc2cnc([S+](C)[O-])nc21` (stereo not drawn) [Example 6, 1-Isopropyl-7-methanesulfinyl-3,4-dihydro-pyrimido[4,5-d]pyrimidin-2(1H)-one]: the melting point was 218 to 219 °C (dec.).

Take `COc1ccc(Nc2ncc3c(n2)N(C2CCCC2)C(=O)NC3)cc1` [Example 9, 1-Cyclopentyl-7-(4-methoxyphenylamino)-3,4-dihydro-pyrimido[4,5-d]pyrimidin-2(1H)-one]: the melting point was 247 to 249 °C (dec.).

With `O=C1NCc2cnc(Nc3ccc(N4CCCCC4)cc3)nc2N1C1CCCC1` [Example 10, 1-Cyclopentyl-7-[4-(piperidin-1-yl)phenylamino]-3,4-dihydro-pyrimido [4,5-d]pyrimidin-2(1H)-one], the melting point is 254 to 277 °C (dec.).

With `CN1CCN(c2ccc(Nc3ncc4c(n3)N(C3CCCC3)C(=O)NC4)cc2)CC1` [Example 11, 1-Cyclopentyl-7-[4-(4-methylpiperazin-1-yl)phenylamino]-3,4-dihydro-pyrimido[4,5-d]pyrimidin-2(1H)-one], the melting point was 236 to 239 °C (dec.).

`CCN(CC)CCOc1ccc(Nc2ncc3c(n2)N(C2CCCC2)C(=O)NC3)cc1C` [Example 13, 1-Cyclopentyl-7-{3-methyl-4-[2-(diethylamino)ethoxy]phenylamino}-3,4-dihydro-pyrimido[4,5-d]pyrimidin-2(1H)-one]: the melting point was 175 to 177 °C.

As to `O=C1NCc2cnc(Nc3ccc(N4CCC(O)CC4)cc3)nc2N1C1CCCC1` [Example 15, 1-Cyclopentyl-7-[4-(4-hydroxypiperidin-1-yl)phenylamino]-3,4-dihydro-pyrimido [4,5-d]pyrimidin-2(1H)-one], the melting point is > 200 °C (dec.).

As for `O=C1NCc2cnc(Nc3ccc(N4CCCC(O)C4)cc3)nc2N1C1CCCC1` (stereo not drawn) [Example 16, 1-Cyclopentyl-7-[4-(3-hydroxypiperidin-1-yl)phenylamino]-3,4-dihydro-pyrimido[4,5-d]pyrimidin-2(1H)-one], the melting point was > 200 °C (dec.).

With `CC1CN(c2ccc(Nc3ncc4c(n3)N(C3CCCC3)C(=O)NC4)cc2)CC(C)N1` (stereo not drawn) [Example 18, 1-Cyclopentyl-7-[4-(3,5-dimethylpiperazin-1-yl)phenylamino]-3,4-dihydro-pyrimido[4,5-d]pyrimidin-2(1H)-one], the melting point was > 200 °C (dec.).

`O=C1NCc2cnc(Nc3ccc(N4CCCCC4CO)cc3)nc2N1C1CCCC1` (stereo not drawn) [Example 19, 1-Cyclopentyl-7-[4-(2-hydroxymethylpiperidin-1-yl)phenylamino]-3,4-dihydro-pyrimido[4,5-d]pyrimidin-2(1H)-one]: the melting point was 220 to 221 °C.

`O=C1NCc2cnc(Nc3ccc(N4CCC(CCCO)CC4)cc3)nc2N1C1CCCC1` [Example 20, 1-Cyclopentyl-7-{4-[4-(3-hydroxypropyl)piperidin-1-yl]phenylamino}-3,4-dihydro-pyrimido[4,5-d]pyrimidin-2(1H)-one] had a melting point of more than 230 °C.

In the case of `CC(C)N1C(=O)NCc2cnc(Nc3ccc(N4CCC(O)CC4)cc3)nc21` [Example 23, 7-[4-(4-Hydroxypiperidin-1-yl)phenylamino]-1-isopropyl-3,4-dihydro-pyrimido[4,5-d]pyrimidin-2(1H)-one], the melting point is > 120 °C (dec.).

In the case of `CC(C)N1C(=O)NCc2cnc(Nc3ccc(N4CCC(N(C)C)CC4)cc3)nc21.O=C(O)C(F)(F)F` [Example 24, 7-{4-[4-(Dimethylamino)piperidin-1-yl]phenylamino}-1-isopropyl-3,4-dihydro-pyrimido[4,5-d]pyrimidin-2(1H)-one; compound with trifluoroacetic acid], the melting point was 215 to 217 °C (dec.).

Take `CC(C)N1C(=O)NCc2cnc(Nc3ccc(-n4cccn4)cc3)nc21.O=C(O)C(F)(F)F` [Example 25, 1-Isopropyl-7-[4-(pyrazol-1-yl)phenylamino]-3,4-dihydro-pyrimido[4,5-d]pyrimidin-2(1H)-one; compound with trifluoroacetic acid]: the melting point is 249 to 252 °C (dec.).

Consider `CN1C(=O)NCc2cnc(Nc3ccc(N4CCC(N(C)C)CC4)cc3)nc21.O=C(O)C(F)(F)F` [Example 30, 7-{4-[4-(Dimethylamino)piperidin-1-yl]phenylamino}-1-methyl-3,4-dihydro-pyrimido[4,5-d]pyrimidin-2(1H)-one; compound with trifluoroacetic acid], for which the melting point is 190 to 191 °C (dec.).

For `CN1CCN(c2ccc(Nc3ncc4cnc(=O)n(C5CCCC5)c4n3)cc2)CC1` [Example 32, 1-Cyclopentyl-7-[4-(4-methylpiperazin-1-yl)phenylamino]pyrimido-[4,5-d]pyrimidin-2(1H)-one], the melting point was 220 to 225 °C (dec.).

For `O=c1ncc2cnc(Nc3ccc(N4CCC(O)CC4)cc3)nc2n1C1CCCC1` [Example 33, 1-Cyclopentyl-7-[4-(4-hydroxypiperidin-1-yl)phenylamino]pyrimido[4,5-d]pyrimidin-2(1H)-one], the melting point is > 185 °C (dec.).

`CCN(CC)CCOc1ccc(Nc2ncc3cnc(=O)n(C4CCCC4)c3n2)cc1C` [Example 34, 1-Cyclopentyl-7-{3-methyl-4-[2-(diethylamino)ethoxy]-phenylamino}pyrimido[4,5-d]pyrimidin-2(1H)-one]: the melting point is > 95 °C (dec.).

`O=c1ncc2cnc(Nc3ccc(N4CCCC(O)C4)cc3)nc2n1C1CCCC1` (stereo not drawn) [Example 35, 1-Cyclopentyl-7-[4-(3-hydroxypiperidin-1-yl)phenylamino]pyrimido[4,5-d]-pyrimidin-2(1H)-one]: the melting point is > 135 °C (dec.).

`O=c1ncc2cnc(Nc3ccc(-n4cccn4)cc3)nc2n1C1CCCC1` [Example 36, 1-Cyclopentyl-7-[4-(pyrazol-1-yl)phenylamino]pyrimido[4,5-d]pyrimidin-2(1H)-one]: the melting point was > 135 °C (dec.).

Take `O=c1ncc2cnc(Nc3ccc(N4CCC(CCN5CCOCC5)CC4)cc3)nc2n1C1CCCC1` [Example 39]: the melting point is > 140 °C (dec.).
